Source: publication PMC11355573, “A New Renieramycin T Right-Half Analog as a Small Molecule Degrader of STAT3” (Marine Drugs, 2024)

Tests used:
[1] = tested on: ZO1, Slug, Snail, N-cadherin, Vimentin mRNA in H460 cells; experiment: mRNA of EMT markers by Real-time qPCR; assay type: cell-based, human; details: H460, 1 μM and 2.5 µM
Procedure: Therefore, the effect of DH_31 on targeting, the DNA-binding domain of STAT3, may represent an impact on downstream targets at the transcriptional level (Figure 8A). The expression levels of ZO1, Slug, Snail, N-cadherin, and Vimentin were analyzed using Real-time qPCR.
Quantitative Real-time PCR was performed to determine the effect of DH_31 on mRNA levels of STAT3 and EMT-related genes. H460 cells (4.0 × 10^5 cells per well) were seeded in 6-well plates. Following overnight incubation, the cells were treated with different concentrations of DH_31 (0–2.5 μM)) for 8 h at 37 °C. After treatment, total RNA was isolated using the RNeasy kit (Qiagen, Germany) and subsequently subjected to cDNA synthesis using qScript cDNA Supermix (Quanta bio, Beverly, MA, USA), following the manufacturers’ protocols. Real-time qPCR was performed using Luna Universal qPCR Master Mix (NEB, Ipswich, MA, USA) and the CFX 96 Real-time PCR system (Bio-Rad, Hercules, CA, USA). The expression of each cDNA was normalized to that of β-actin, and the comparative Ct method was used to obtain relative expression levels. The primers used for Real-time PCR are shown in the in the Supporting Information, Table S1. The list of primers.

STAT3 = biological target: T1, STAT3 (Homo sapiens, UniProt P40763); experiment: STAT3 proteasomal degradation, Western blot with or without MG132; assay type: cell-based; details: H460, 1 and 2.5 µM, 6 h, without MG132 (p < 0.05)
T1 construct: endogenous in cells; host or cells: NCI-H460 (ATCC HTB-177)
Procedure: To explore whether the reduction in total STAT3 protein after DH_31 treatments (as shown in Figure 5B–E) occurs at the mRNA or protein levels, we first investigated mRNA levels using Real-time qPCR. […] To evaluate whether DH_31 affects STAT3 stability, pretreatment with MG132, a potent selective proteasome inhibitor, was performed. H460 cells were pretreated with or without MG132 (10 μM) for 1 h and then cells were either treated with DH_31 for 6 h or left untreated. […] The proteasome can recognize and degrade protein targets that are conjugated by single or poly-ubiquitin molecules. To investigate the ubiquitination level of STAT3 with DH_31 treatments, the ubiquitination level was evaluated using immunoprecipitation and Western blot analysis of the STAT3–ubiquitin complex in the lung cancer cells treated with DH_31 and in untreated cells.
Immunoprecipitation assay was performed to investigate ubiquitin–proteasomal degradation, shedding light on the regulatory mechanisms involved. H460 cells (4.0 × 10^5 cells per well) were seeded in 6-well plates. Following overnight incubation, the cells were pretreated with 10 μM of a proteasome inhibitor, MG132, for 1 h to prevent proteasomal degradation, and then were treated with different concentrations of DH_31 (0–2.5 μM) for 6 h. After treatment, the cells were lysed as described above. Immunoprecipitation was carried out using the Dynabeads™ Protein G Immunoprecipitation kit, following the manufacturers’ protocols. The magnetic beads were coated with the rabbit anti-STAT3, then incubated with whole-cell lysate and mixed gently overnight at 4 °C. After washing, the supernatant containing the antibody–antigen complex was used to perform Western blot analysis to detect the ubiquitinated STAT3 protein.

T1 sequence (P40763 whole entry): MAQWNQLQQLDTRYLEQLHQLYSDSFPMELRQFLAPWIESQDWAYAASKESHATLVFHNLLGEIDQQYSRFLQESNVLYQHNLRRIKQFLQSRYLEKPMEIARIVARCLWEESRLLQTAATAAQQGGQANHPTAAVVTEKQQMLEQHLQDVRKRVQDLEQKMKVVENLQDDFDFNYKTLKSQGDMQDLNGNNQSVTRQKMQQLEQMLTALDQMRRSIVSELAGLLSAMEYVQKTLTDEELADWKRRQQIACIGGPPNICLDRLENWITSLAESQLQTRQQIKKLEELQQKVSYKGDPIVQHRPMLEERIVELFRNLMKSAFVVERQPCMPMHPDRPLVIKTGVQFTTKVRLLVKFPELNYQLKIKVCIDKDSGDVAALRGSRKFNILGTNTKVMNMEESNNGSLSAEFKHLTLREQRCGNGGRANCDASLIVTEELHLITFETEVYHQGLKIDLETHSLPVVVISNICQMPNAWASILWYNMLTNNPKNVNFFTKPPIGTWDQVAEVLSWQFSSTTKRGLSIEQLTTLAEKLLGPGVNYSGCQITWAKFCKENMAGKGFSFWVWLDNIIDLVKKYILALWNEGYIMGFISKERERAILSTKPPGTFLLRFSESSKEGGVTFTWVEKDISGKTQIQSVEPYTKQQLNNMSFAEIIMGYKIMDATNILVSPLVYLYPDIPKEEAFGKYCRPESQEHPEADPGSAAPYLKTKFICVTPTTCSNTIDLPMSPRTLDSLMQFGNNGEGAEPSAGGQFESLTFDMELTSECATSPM

Structure (SMILES): COc1c(C)cc2c(c1O)[C@@H]1CN(Cc3ccc4ccccc4c3)[C@@H](C#N)[C@H](C2)N1C [DH_31, (1R,4R,5S)-10-hydroxy-9-methoxy-8,11-dimethyl-3-(naphthalen-2-ylmethyl)-1,2,3,4,5,6-hexahydro-1,5-epiminobenzo[d]azocine-4-carbonitrile]
- ZO1 mRNA expression ([1]; 8 h (p < 0.01)): significant increase
- N-cadherin mRNA expression ([1]; 8 h (p < 0.05)): significant reduction
- Slug mRNA expression ([1]; 8 h (p < 0.05)): significant reduction
- Snail mRNA expression ([1]; 8 h (p < 0.05)): significant reduction
- Vimentin mRNA expression ([1]; 8 h (p < 0.05)): significant reduction
- STAT3 protein levels (Western blot) (STAT3): significantly reduced
